From patent US20260022143A1, “Cyclic Peptide Inhibitors of IL-23” (JANSSEN PHARMACEUTICA NV, priority 2022, published 2026)
Counter-ions that a name gives are not always drawn. Like-named read-outs stand apart in the source and are kept apart here. Starred links: 1 amine or outer side, 2 acyl side, 3 side chain; linkers in the order of their positions; H or OH if unused. Positions of bridges follow the written chain, without caps; N, C: chain ends. Non-standard residues stand in square brackets, D forms with d. Residues, ends and D or L forms follow the SMILES beside them. *: point of attachment. Me3N+CH2CH2(OCH2CH2)4CO = C[N+](C)(C)CCOCCOCCOCCOCCC(=O)*; Me3N+(CH2)2O(CH2)2O(CH2)2CO = C[N+](C)(C)CCOCCOCCC(=O)*; CH2CH2OCH2CH2OCH2CH2NMe3+ = C[N+](C)(C)CCOCCOCC*; Trp(7-Me) = Cc1cccc2c(C[C@H](N)C(=O)O)c[nH]c12; dLys(Me3) = C[N+](C)(C)CCCC[C@@H](N)C(=O)O; X1 = CN(CC[C@H](N[*:1])C(=O)[*:2])[*:3]; 2Nal = N[C@@H](Cc1ccc2ccccc2c1)C(=O)O; AEF = NCCOc1ccc(C[C@H](N)C(=O)O)cc1; 3Pal = N[C@@H](Cc1cccnc1)C(=O)O; Lys(Me) = CNCCCC[C@H](N)C(=O)O; Pen = CC(C)(S)[C@H](N)C(=O)O; Thp = NC1(C(=O)O)CCOCC1; X3 = C[N+](C)(C)CCCCC*; Me2NCH2CH2 = CN(C)CC*; Tfa = O=C(C(F)(F)F)*; Sar = CNCC(=O)O

Assays:
[1] = target: T1, interleukin-23 (IL-23) receptor (Homo sapiens, UniProt Q5VWK5); test: PBMC pSTAT3 assay; format: cell-based
T1 construct: Cryopreserved peripheral blood mononuclear cells (PBMCs) from healthy donors were thawed; endogenous in cells; host or cells: cryopreserved PBMCs from healthy donors, expanded 4 days on anti-CD3 with IL-1
T1 sequence (Q5VWK5 24-629): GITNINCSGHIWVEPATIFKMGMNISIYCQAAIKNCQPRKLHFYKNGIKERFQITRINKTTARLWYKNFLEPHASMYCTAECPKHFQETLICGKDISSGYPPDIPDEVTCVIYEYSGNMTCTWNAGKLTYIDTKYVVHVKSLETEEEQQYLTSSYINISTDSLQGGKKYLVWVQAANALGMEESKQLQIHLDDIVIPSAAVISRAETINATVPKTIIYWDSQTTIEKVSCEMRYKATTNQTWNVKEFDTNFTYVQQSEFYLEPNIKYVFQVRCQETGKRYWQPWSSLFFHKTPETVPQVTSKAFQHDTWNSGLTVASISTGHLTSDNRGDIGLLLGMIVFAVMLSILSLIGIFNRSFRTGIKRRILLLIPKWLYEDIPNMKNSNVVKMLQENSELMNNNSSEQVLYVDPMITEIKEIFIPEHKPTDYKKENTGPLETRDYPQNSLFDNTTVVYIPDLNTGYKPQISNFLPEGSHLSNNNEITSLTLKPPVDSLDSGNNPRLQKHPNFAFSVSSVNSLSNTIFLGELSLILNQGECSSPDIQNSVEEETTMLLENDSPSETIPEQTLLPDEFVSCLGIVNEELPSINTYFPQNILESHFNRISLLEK
Method: Cryopreserved peripheral blood mononuclear cells (PBMCs) from healthy donors were thawed and washed twice in ImmunoCult-XF T cell expansion medium (XF-TCEM) supplemented with CTL anti-aggregate wash. The cells were counted, resuspended at 2×10^5 cells per mL XF-TCEM supplemented with penicillin/streptomycin and 100 ng/mL IL-1 (BioLegend, 579404), and cultured in tissue culture flasks coated with anti-CD3 (eBioscience, 16-0037-85 or BD Pharmingen, 555329) at 37° C. in 5% CO2. On day 4 of culture, PBMCs were collected, washed twice in RPMI-1640 supplemented with 0.1% BSA (RPMI-BSA), and incubated in RPMI-BSA in upright tissue culture flasks for 4 hours at 37° C. in 5% CO2. Following this ‘starvation,’ a total of 6×10^4 cells in […] RPMI-BSA was transferred into each well of a 384-well plate pre-spotted with peptide or DMSO. The cells were incubated for 30 minutes prior to the addition of IL-23 at a final concentration of 5 ng/mL. The cells were stimulated with cytokine for 30 minutes at 37° C. in 5% CO2, transferred onto ice for 10 minutes, and lysed. Cell lysates were stored at −80° C. until phosphorylated STAT3 was measured using the phospho-STAT panel kit (Meso Scale Discovery, K15202D).

[2] = target: T2, IL-23R (Homo sapiens, UniProt Q5VWK5); test: IL23R Reporter Assay; format: cell-based; conditions: HEK293 cells containing IL-23R, IL-12RP1 and STAT-inducible firefly luciferase reporter; 10 ng/mL IL-23 (EC90); 5 h at 37° C.; read-out: IL23R Reporter Assay
T2 construct: host or cells: HEK293
T2 sequence (Q5VWK5 24-629): T1 sequence (Q5VWK5 24-629)

[3] = Exposed Polar Surface Area (EPSA); format: physicochemical; conditions: SFC on Chirex 3014 column, sample 1 mM DMSO stock
Summary of the method: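 Polarity descriptor in Å² derived from retention time using 8 calibration standards re-run every 20 compounds. Duplicate injections of 1 mM DMSO stock; linear 5–60% modifier gradient (20 mM ammonium formate in MeOH) with CO2 at 4 mL/min, 35 °C, on a Chirex 3014 column.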

[4] = disulfide bond, 20-membered ring

| Compound | IC50 [1] [nM] | IC50 [2] [nM] | EPSA ([3]; read-out: EPSA) [A^2] | also measured |
| --- | --- | --- | --- | --- |
| CC(=O)NCCCC[C@H](NC(=O)C1(NC(=O)[C@H](Cc2ccc3ccccc3c2)NC(=O)[C@H](Cc2ccc(OCCN)cc2)NC(=O)[C@H]2NC(=O)[C@H](CCCCN(C)C(C)=O)NC(=O)[C@H](Cc3c[nH]c4c(C)cccc34)NC(=O)[C@H]([C@@H](C)O)NC(=O)[C@H](CC(N)=O)NC(=O)[C@@H](NC(C)=O)C(C)(C)SSC2(C)C)CCOCC1)C(=O)N[C@@H](CC(N)=O)C(=O)N[C@@H](Cc1cccnc1)C(=O)N(C)CC(N)=O [SEQ ID 57] (Ac-[Pen]NT[Trp(7-Me)][Lys(Me)](Ac)[Pen][AEF][2Nal][Thp]K(Ac)N[3Pal][Sar]-NH2; disulfide 1-6) | 0.0076 | ~6290 | 166 | EPSA ([3]; listed as 1): 179.2 Å^2 |
| Cc1cccc2c(C[C@@H]3NC(=O)[C@H]([C@@H](C)O)NC(=O)[C@H](CC(N)=O)NC(=O)[C@@H](NC(=O)C(F)(F)F)C(C)(C)SSC(C)(C)[C@@H](C(=O)N[C@@H](Cc4ccc(OCCN)cc4)C(=O)N[C@@H](Cc4ccc5ccccc5c4)C(=O)NC4(C(=O)N[C@@H](CCC(=O)N(C)C)C(=O)N[C@@H](CC(N)=O)C(=O)N[C@@H](Cc5cccnc5)C(=O)N(C)CC(N)=O)CCOCC4)NC(=O)[C@H](CCC(=O)N(C)C)NC3=O)c[nH]c12 [compound 62] (Tfa-[Pen]NT[Trp(7-Me)]E(NMe2)[Pen][AEF][2Nal][Thp]E(NMe2)N[3Pal][Sar]-NH2; disulfide 1-6 (inferred)) | 0.0081 | 3.2 | 160 | – |
| CC(=O)N[C@H](CCCC[N+](C)(C)C)C(=O)N[C@@H]1C(=O)N[C@@H](CC(=O)N(C)C)C(=O)N[C@@H]([C@@H](C)O)C(=O)N[C@@H](Cc2c[nH]c3c(C)cccc23)C(=O)N[C@@H](CCCCN(C)C(C)=O)C(=O)N[C@H](C(=O)N[C@@H](Cc2ccc(OCCN(C)C)cc2)C(=O)N[C@@H](Cc2ccc3ccccc3c2)C(=O)NC2(C(=O)N[C@@H](CCC(=O)O)C(=O)N[C@@H](CC(N)=O)C(=O)N[C@@H](Cc3cccnc3)C(=O)N(C)CC(=O)N(C)C)CCOCC2)C(C)(C)SSC1(C)C [compound 105, MeCO-k(Me)3-Pen(3)-N(N(Me)2)-T-7MeW-K(NMeAc)-Pen(3)-AEF(N(Me)2)-2Nal-THP-E-N-3Pya-Sar-CON(Me)2] (Ac-[dLys(Me3)][Pen]D(NMe2)T[Trp(7-Me)][Lys(Me)](Ac)[Pen]Y(Me2NCH2CH2)[2Nal][Thp]EN[3Pal][Sar]-NMe2; disulfide 2-7) | 0.0075 | – | 155 | – |
| Cc1cccc2c(C[C@@H]3NC(=O)[C@H]([C@@H](C)O)NC(=O)[C@H](CC(=O)N(C)C)NC(=O)[C@@H](NC(=O)CCOCCOCCOCCOCC[N+](C)(C)C)C(C)(C)SSC(C)(C)[C@@H](C(=O)N[C@@H](Cc4ccc(OCCN)cc4)C(=O)N[C@@H](Cc4ccc5ccccc5c4)C(=O)NC4(C(=O)N[C@@H](CCC(=O)O)C(=O)N[C@@H](CC(N)=O)C(=O)N[C@@H](Cc5cccnc5)C(=O)N(C)CC(=O)N(C)C)CCOCC4)NC(=O)[C@H](CCN(C)C(=O)CCOCCOCCOCCOCC[N+](C)(C)C)NC3=O)c[nH]c12 [compound 145, cPEG5aCO-Pen(3)-N(N(Me)2)-T-7MeW-Dab(NMecPEG5a)-Pen(3)-AEF-2Nal-THP-E-N-3Pya-Sar-CON(Me)2] ({Me3N+CH2CH2(OCH2CH2)4CO}-[Pen]D(NMe2)T[Trp(7-Me)][X1](Me3N+CH2CH2(OCH2CH2)4CO)[Pen][AEF][2Nal][Thp]EN[3Pal][Sar]-NMe2; disulfide 1-6) | 0.022 | 5.7 | 158 | – |
| CC(=O)N(C)CCCC[C@@H]1NC(=O)[C@H](Cc2c[nH]c3c(C)cccc23)NC(=O)[C@H]([C@@H](C)O)NC(=O)[C@H](CC(=O)N(C)C)NC(=O)[C@@H](NC(=O)CCOCCOCC[N+](C)(C)C)C(C)(C)SSC(C)(C)[C@@H](C(=O)N[C@@H](Cc2ccc(OCCCCC[N+](C)(C)C)cc2)C(=O)N[C@@H](Cc2ccc3ccccc3c2)C(=O)NC2(C(=O)N[C@@H](CCCCN(C)C(C)=O)C(=O)N[C@@H](CC(N)=O)C(=O)N[C@@H](Cc3cccnc3)C(=O)N(C)CC(=O)N(C)C)CCOCC2)NC1=O [compound 164, cPEG3aCO-Pen(3)-N(N(Me)2)-T-7MeW-K(NMeAc)-Pen(3)-TMAPF-2Nal-THP-K(NMeAc)-N-3Pya-Sar-CON(Me)2] ({Me3N+(CH2)2O(CH2)2O(CH2)2CO}-[Pen]D(NMe2)T[Trp(7-Me)][Lys(Me)](Ac)[Pen]Y(X3)[2Nal][Thp][Lys(Me)](Ac)N[3Pal][Sar]-NMe2; disulfide 1-6) | 0.013 | – | – | EPSA [3]: 144.54 Å^2 |
| CC(=O)N(C)CCCC[C@@H]1NC(=O)[C@H](Cc2c[nH]c3c(C)cccc23)NC(=O)[C@H]([C@@H](C)O)NC(=O)[C@H](CC(=O)N(C)C)NC(=O)[C@@H](NC(=O)CCOCCOCC[N+](C)(C)C)C(C)(C)SSC(C)(C)[C@@H](C(=O)N[C@@H](Cc2ccc(OCCOCCOCC[N+](C)(C)C)cc2)C(=O)N[C@@H](Cc2ccc3ccccc3c2)C(=O)NC2(C(=O)N[C@@H](CCCCN(C)C(C)=O)C(=O)N[C@@H](CC(N)=O)C(=O)N[C@@H](Cc3cccnc3)C(=O)N(C)CC(=O)N(C)C)CCOCC2)NC1=O [compound 181, cPEG3aCO-Pen(3)-N(N(Me)2)-T-7MeW-K(NMeAc)-Pen(3)-APEG3F-2Nal-THP-K(NMeAc)-N-3Pya-Sar-CON(Me)2] ({Me3N+(CH2)2O(CH2)2O(CH2)2CO}-[Pen]D(NMe2)T[Trp(7-Me)][Lys(Me)](Ac)[Pen]Y(CH2CH2OCH2CH2OCH2CH2NMe3+)[2Nal][Thp][Lys(Me)](Ac)N[3Pal][Sar]-NMe2; disulfide 1-6) | 0.037 | 2 | 136 | – |
| CC(=O)NCCCC[C@@H]1NC(=O)[C@H](Cc2c[nH]c3c(C)cccc23)NC(=O)[C@H]([C@@H](C)O)NC(=O)[C@H](CC(N)=O)NC(=O)[C@@H](NC(C)=O)C(C)(C)SSC(C)(C)[C@@H](C(=O)N[C@@H](Cc2ccc(OCCCCC[N+](C)(C)C)cc2)C(=O)N[C@@H](Cc2ccc3ccccc3c2)C(=O)NC2(C(=O)N[C@@H](CCCCNC(C)=O)C(=O)N[C@@H](CC(N)=O)C(=O)N[C@@H](Cc3cccnc3)C(=O)N(C)CC(N)=O)CCOCC2)NC1=O [compound 281, MeCO-Pen(3)-N-T-7MeW-K(Ac)-Pen(3)-TMAPF-2Nal-THP-K(Ac)-N-3Pya-Sar-CONH2] (Ac-[Pen]NT[Trp(7-Me)]K(Ac)[Pen]Y(X3)[2Nal][Thp]K(Ac)N[3Pal][Sar]-NH2; disulfide 1-6 (inferred)) | 0.0075 | 1.6 | 158 | – |
| CF3CO-Pen(3)-N(N(Me)2)-T-7MeW-K(NMeAc)-Pen(3)-AEF-2Nal-THP-K(NMeAc)-N-3Pya-Sar-CON(Me)2 | – | – | – | ring closure, yield after HPLC ([4]; I2/MeOH, 20% MeCN/H2O, 0.56 mM): 12.1% |
| MeCO-k(Me)3-Pen(3)-N(N(Me)2)-T-7MeW-K(NMeAc)-Pen(3)-AEF(N(Me)2)-2Nal-THP-E-N-3Pya-Sar-CON(Me)2 | – | – | – | ring closure, yield after HPLC ([4]; I2/AcOH, MeCN/H2O, […]): 13.4% |
| cPEG5aCO-Pen(3)-N(N(Me)2)-T-7MeW-Dab(NMecPEG5a)-Pen(3)-AEF-2Nal-THP-E-N-3Pya-Sar-CON(Me)2 | – | – | – | ring closure, yield after HPLC ([4]; I2/AcOH, MeCN/H2O, 2.05 mM): 10% |
